Assay results taken from US20220323416A1, “Ferroportin-Inhibitors For The Use In The Prevention And Treatment Of Kidney Injuries” (Vifor (International) AG, priority 2019, published 2022).

How the values were obtained:
guinea pigs = conditions: cited from earlier work
C57BL/6 mice = assay: Reduction of serum iron by Fpn127 in C57BL/6 mice; assay type: in vivo, mouse; conditions: naïve C57BL/6 mice; for Serum iron: 4 h post dosing; for Serum iron (hypoferremia sustained): 8 h post dosing
Procedure: FIG. 2: Serum iron levels in naïve C57BL/6 mice treated with Fpn127 at 120 mg/kg or 300 mg/kg for 4 h or 8 h. Vehicle was 0.5% methylcellulose in water
To determine the dose of Fpn127 that causes sustained serum iron reduction, C57BL/6 mice received either 120 mg/kg or 300 mg/kg of Fpn127 po for 4 h or 8 h.

[1] = i.v. dosing after RBC transfusion

## O=C(NCc1ncccc1F)c1csc(CCNCc2nc3ccccc3[nH]2)n1 [VIT-2653]
Guinea pigs; [1]
  Hb levels following exchange transfusion: significantly improved
  NTBI levels following exchange transfusion: significantly improved
  Total iron in kidneys following transfusion: can be reduced
Guinea pigs; i.v. dosing, transfused animals
  Occurrence of changes in plasma creatinine >0.3 mg/dL (indicator of early AKI): significantly reduced
Guinea pigs; i.v. immediately after acute red blood cell transfusions
  Cellular injury: attenuation of cellular injury

## O=C(NCc1ncccc1F)c1coc(CCNCCc2nc3ccccc3[nH]2)n1 [Fpn127]
C57BL/6 mice; 120 mg/kg po
  Serum iron: reduced significantly
  Serum iron (hypoferremia sustained): only the dose of 300 mg/kg sustained the hypoferremia
C57BL/6 mice; 300 mg/kg po
  Serum iron: reduced significantly
  Serum iron (hypoferremia sustained): sustained the hypoferremia
